Data on three molecules can be found in ChEMBL document CHEMBL2429832, “N-substituted 8-aminopentacyclo[5.4.0.0(2,6).0(3,10).0(5,9)]undecanes as σ receptor ligands with potential neuroprotective effects” (Bioorg Med Chem, 2013).

Molecules are shown by their SMILES.

For test [1], the target named is GABA-A receptor; agonist GABA site (Homo sapiens) (UniProt P14867+P47870+P28472+P48169+P34903+P18505+P47869+P31644+Q16445). Briefly: Inhibition of GABAA receptor (unknown origin) at 10 uM by PDSP assay relative to control. It counts as protein-complex assay.
The species entered for the next test is Rattus norvegicus. Briefly: Inhibition of rat brain BZP receptor at 10 uM by PDSP assay relative to control.
Test [2] deals with Delta-type opioid receptor (Homo sapiens, UniProt P41143). Briefly: Inhibition of delta opioid receptor (unknown origin) at 10 uM by PDSP assay relative to control.
Delta-type opioid receptor, sequence (P41143 whole entry): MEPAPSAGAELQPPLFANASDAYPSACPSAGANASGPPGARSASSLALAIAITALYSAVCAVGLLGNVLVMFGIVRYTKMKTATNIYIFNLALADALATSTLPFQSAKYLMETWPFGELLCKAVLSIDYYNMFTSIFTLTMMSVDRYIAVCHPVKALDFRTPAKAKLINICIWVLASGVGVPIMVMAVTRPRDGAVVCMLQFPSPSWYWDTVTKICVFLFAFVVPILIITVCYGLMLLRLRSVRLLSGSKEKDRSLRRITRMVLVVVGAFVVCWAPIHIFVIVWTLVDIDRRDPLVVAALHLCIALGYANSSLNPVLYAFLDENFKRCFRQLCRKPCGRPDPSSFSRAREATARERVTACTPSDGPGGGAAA
Test [3] deals with T1, 5-hydroxytryptamine receptor 3A (Homo sapiens) (UniProt P46098).
T1 sequence (whole entry): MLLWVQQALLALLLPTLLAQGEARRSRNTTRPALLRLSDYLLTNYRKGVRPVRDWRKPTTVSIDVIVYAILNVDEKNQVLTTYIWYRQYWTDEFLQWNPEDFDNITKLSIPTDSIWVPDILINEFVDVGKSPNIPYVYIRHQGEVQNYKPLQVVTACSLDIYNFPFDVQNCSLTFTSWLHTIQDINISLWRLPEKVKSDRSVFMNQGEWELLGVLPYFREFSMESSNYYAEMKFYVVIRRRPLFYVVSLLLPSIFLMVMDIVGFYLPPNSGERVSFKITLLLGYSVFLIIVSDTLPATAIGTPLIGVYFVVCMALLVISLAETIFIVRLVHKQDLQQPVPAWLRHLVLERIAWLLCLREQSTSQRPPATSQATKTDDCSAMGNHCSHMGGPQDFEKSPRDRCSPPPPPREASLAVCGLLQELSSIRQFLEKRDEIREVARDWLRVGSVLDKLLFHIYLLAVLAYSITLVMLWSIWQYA
Briefly: Inhibition of 5-HT3 receptor (unknown origin) at 10 uM by PDSP assay relative to control.

In test [4] the target is 5-hydroxytryptamine receptor 1E (Homo sapiens) (UniProt P28566). Briefly: Inhibition of 5-HT1E receptor (unknown origin) at 10 uM by PDSP assay relative to control.
5-hydroxytryptamine receptor 1E (Homo sapiens), sequence (P28566 whole entry): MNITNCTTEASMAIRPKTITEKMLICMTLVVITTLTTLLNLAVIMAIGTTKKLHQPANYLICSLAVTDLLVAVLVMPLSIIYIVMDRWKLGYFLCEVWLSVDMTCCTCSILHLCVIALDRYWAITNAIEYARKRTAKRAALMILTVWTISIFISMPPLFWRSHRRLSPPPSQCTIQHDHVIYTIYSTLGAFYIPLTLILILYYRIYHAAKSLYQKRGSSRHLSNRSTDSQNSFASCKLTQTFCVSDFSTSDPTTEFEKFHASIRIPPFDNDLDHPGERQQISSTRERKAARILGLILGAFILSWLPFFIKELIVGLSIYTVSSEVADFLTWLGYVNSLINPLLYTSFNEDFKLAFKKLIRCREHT
Test [5] has as its target Sodium-dependent dopamine transporter (Homo sapiens, UniProt Q01959). Briefly: Displacement of [3H]-WIN-35,428 from human DAT expressed in HEK cell membranes at 10 uM relative to control. As to conditions: HEK293. Background: Displacement assays read how much labelled ligand stays bound in the presence of the test substance.
The target of the next test is D(2) dopamine receptor (Homo sapiens, UniProt P14416). Briefly: Inhibition of dopamine D2 receptor (unknown origin) at 10 uM by PDSP assay relative to control.
D(2) dopamine receptor, sequence (P14416 whole entry): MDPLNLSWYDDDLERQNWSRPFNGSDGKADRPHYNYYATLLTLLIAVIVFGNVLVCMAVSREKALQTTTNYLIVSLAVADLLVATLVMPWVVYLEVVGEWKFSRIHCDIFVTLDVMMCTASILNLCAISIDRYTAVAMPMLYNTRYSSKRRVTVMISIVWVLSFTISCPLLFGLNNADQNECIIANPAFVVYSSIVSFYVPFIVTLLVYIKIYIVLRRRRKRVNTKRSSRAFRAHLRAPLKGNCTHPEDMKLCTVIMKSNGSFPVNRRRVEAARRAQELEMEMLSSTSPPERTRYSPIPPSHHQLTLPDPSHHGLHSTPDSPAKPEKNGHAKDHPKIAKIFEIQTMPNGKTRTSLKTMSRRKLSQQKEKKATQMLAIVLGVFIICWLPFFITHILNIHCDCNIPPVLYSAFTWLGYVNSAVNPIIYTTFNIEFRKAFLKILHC
The target of test [6] is T2, Muscarinic acetylcholine receptor M5 (Homo sapiens) (UniProt P08912).
T2 sequence (whole entry): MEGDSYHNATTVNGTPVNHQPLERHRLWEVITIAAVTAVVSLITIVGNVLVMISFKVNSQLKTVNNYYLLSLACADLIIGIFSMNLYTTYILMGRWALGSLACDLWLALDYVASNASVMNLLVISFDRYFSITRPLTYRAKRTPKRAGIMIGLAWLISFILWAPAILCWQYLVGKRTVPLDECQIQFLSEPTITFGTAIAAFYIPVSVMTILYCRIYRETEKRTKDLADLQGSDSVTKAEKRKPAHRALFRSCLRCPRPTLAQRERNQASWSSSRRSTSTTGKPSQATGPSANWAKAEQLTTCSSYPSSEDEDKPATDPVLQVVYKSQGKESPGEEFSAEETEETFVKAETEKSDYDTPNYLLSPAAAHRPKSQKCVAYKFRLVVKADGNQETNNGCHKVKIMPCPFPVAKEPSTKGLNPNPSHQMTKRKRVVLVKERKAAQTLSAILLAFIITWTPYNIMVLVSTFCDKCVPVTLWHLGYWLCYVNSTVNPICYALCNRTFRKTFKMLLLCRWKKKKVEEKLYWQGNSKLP
Briefly: Inhibition of muscarinic M5 receptor (unknown origin) at 10 uM by PDSP assay relative to control.

For another test, the target named is Histamine H4 receptor (Homo sapiens, UniProt Q9H3N8). Briefly: Inhibition of histamine H4 receptor (unknown origin) at 10 uM by PDSP assay relative to control.
Histamine H4 receptor, sequence (Q9H3N8 whole entry): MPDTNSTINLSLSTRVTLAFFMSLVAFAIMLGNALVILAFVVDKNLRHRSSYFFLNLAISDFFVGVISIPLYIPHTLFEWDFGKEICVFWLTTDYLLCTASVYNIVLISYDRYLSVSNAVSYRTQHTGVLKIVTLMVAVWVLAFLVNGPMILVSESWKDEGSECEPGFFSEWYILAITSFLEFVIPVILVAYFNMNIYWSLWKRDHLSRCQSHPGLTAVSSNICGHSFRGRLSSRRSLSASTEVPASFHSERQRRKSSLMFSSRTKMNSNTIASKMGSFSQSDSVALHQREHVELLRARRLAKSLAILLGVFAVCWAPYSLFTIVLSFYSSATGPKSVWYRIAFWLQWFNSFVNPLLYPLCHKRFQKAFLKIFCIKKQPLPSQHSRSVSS
Test [7] deals with Muscarinic acetylcholine receptor M3 (Homo sapiens, UniProt P20309). Briefly: Inhibition of muscarinic M3 receptor (unknown origin) at 10 uM by PDSP assay relative to control.
Muscarinic acetylcholine receptor M3, sequence (P20309 whole entry, looked up): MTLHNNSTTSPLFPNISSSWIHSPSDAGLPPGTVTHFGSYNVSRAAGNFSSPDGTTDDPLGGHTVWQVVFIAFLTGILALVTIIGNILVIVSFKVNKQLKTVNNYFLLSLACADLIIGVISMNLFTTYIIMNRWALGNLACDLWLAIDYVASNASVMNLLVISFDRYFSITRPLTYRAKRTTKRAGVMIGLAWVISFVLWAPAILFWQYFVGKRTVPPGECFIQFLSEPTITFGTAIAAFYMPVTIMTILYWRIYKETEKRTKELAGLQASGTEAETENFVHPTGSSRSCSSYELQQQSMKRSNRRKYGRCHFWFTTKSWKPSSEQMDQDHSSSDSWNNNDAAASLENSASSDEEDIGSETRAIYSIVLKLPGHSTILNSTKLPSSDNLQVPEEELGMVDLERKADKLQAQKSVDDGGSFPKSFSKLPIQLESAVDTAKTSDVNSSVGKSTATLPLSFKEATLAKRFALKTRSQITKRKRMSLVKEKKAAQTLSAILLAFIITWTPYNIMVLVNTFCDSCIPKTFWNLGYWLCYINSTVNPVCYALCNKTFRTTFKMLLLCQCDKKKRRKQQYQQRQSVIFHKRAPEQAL
A further test has as its target Histamine H3 receptor (Homo sapiens, UniProt Q9Y5N1). Briefly: Inhibition of histamine H3 receptor (unknown origin) at 10 uM by PDSP assay relative to control.
The next test has as its system PC-12. Briefly: Selectivity ratio of Ki for sigma-1 receptor in rat brain homogenates to Ki for sigma-2 receptor in rat PC12 cells. It counts as cell-based.
Another test addresses Histamine H2 receptor (Homo sapiens, UniProt P25021). Briefly: Inhibition of histamine H2 receptor (unknown origin) at 10 uM by PDSP assay relative to control.
For test [8], the target named is 5-hydroxytryptamine receptor 5A (Homo sapiens, UniProt P47898). Briefly: Inhibition of 5-HT5A receptor (unknown origin) at 10 uM by PDSP assay relative to control.
5-hydroxytryptamine receptor 5A, sequence (P47898 whole entry): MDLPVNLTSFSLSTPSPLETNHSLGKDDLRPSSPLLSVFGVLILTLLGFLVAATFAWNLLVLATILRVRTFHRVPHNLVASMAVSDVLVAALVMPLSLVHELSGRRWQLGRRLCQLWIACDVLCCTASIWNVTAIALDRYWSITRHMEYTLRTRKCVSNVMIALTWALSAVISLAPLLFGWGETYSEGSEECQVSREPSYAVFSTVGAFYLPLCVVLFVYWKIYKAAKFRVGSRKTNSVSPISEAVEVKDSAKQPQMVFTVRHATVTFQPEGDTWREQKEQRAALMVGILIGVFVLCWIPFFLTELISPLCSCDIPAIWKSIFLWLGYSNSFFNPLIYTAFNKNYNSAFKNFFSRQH
For test [9], the target named is D(1A) dopamine receptor (Homo sapiens) (UniProt P21728). Briefly: Inhibition of dopamine D1 receptor (unknown origin) at 10 uM by PDSP assay relative to control.
D(1A) dopamine receptor (Homo sapiens), sequence (P21728 whole entry): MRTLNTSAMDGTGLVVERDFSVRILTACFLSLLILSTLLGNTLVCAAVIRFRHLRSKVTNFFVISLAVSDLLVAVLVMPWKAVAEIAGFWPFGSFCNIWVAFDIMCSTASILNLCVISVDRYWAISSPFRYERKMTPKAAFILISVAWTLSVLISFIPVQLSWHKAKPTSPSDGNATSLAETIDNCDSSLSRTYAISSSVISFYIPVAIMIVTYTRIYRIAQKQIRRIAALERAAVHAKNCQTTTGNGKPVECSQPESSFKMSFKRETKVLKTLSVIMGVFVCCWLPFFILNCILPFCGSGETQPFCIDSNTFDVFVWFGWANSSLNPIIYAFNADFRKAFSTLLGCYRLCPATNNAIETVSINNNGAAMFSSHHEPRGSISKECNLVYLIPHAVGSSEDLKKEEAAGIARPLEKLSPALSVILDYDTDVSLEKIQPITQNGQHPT
In test [10] the target is T3, Alpha-1B adrenergic receptor (Homo sapiens) (UniProt P35368).
T3 sequence (whole entry): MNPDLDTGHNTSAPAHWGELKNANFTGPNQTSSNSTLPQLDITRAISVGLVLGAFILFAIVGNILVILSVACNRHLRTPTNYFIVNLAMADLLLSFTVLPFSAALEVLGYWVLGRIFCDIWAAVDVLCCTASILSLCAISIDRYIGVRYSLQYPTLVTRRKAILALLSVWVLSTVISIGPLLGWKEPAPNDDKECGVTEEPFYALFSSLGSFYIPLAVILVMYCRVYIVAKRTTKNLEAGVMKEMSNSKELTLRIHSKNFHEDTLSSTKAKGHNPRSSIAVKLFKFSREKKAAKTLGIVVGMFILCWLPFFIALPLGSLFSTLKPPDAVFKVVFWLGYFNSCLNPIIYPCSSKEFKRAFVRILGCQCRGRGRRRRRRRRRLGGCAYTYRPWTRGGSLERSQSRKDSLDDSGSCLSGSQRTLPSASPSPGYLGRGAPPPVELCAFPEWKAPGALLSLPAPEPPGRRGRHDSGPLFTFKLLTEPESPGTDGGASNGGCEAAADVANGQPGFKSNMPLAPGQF
Briefly: Inhibition of adrenergic alpha1B receptor (unknown origin) at 10 uM by PDSP assay relative to control.

By inhibition is commonly meant the relative decrease from the control value, in per cent. Low readings indicate a weak effect, high ones a strong effect.

Histamine H3 receptor, sequence (Q9Y5N1 whole entry): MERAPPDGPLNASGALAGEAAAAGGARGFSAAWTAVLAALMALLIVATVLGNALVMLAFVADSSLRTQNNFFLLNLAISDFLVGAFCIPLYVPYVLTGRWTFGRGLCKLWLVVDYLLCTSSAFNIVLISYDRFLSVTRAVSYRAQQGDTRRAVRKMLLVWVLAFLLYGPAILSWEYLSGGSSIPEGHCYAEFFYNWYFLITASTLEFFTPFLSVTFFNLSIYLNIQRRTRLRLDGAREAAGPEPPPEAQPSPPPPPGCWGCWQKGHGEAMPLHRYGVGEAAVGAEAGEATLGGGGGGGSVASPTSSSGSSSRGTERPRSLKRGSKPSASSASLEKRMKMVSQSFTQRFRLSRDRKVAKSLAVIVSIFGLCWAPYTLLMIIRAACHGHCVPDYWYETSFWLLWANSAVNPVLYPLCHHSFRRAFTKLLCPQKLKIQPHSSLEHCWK
Histamine H2 receptor, sequence (P25021 whole entry): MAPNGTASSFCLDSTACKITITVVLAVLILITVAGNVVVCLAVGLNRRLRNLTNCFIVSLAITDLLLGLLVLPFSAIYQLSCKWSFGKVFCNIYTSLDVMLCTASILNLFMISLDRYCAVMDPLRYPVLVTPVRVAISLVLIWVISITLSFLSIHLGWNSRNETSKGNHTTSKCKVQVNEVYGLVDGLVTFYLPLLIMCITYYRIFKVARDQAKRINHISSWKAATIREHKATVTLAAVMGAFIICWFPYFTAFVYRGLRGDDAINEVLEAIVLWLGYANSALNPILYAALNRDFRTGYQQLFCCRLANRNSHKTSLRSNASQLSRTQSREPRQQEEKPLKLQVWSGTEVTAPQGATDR
Sodium-dependent dopamine transporter, sequence (Q01959 whole entry): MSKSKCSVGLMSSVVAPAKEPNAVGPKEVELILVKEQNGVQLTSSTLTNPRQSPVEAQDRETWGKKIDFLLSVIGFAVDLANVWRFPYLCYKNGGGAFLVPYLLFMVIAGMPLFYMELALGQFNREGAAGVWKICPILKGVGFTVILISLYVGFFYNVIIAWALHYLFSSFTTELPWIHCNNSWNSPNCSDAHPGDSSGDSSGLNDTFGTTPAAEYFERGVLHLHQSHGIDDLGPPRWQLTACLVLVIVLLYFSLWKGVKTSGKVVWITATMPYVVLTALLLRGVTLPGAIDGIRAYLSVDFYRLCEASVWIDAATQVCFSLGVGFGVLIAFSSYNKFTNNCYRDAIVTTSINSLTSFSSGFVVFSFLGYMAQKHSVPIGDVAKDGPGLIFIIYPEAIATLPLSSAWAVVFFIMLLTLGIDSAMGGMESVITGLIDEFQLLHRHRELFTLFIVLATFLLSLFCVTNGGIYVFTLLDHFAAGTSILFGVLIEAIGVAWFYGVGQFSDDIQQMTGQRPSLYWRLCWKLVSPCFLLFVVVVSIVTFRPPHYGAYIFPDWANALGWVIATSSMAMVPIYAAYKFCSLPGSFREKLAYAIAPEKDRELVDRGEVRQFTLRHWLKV

As for `CN(Cc1cccnc1)[C@H]1C2C3CC4C5C3CC2C5C41` (stereo partly drawn), the inhibition (in test [1]; in the test filed under Rattus norvegicus; in test [2]; in test [3]; in test [4]; in test [5]) was less than 50% in each case. Further, the inhibition (against D(2) dopamine receptor; in test [6]; against Histamine H4 receptor; in test [7]; against Histamine H3 receptor; against Histamine H2 receptor) was less than 50% throughout. For the same molecule, the inhibition in test [8], in [9] and in test [10] was less than 50% throughout. Further, the Ratio Ki in the test on PC-12 worked out at 1.1.
Regarding `CN(CCc1ccccn1)[C@H]1C2C3CC4C2C(=O)C2C4C3C21` (stereo partly drawn), the inhibition (in test [1]; in the test listed under Rattus norvegicus; in test [2]; in [3]; in test [4]; in test [5]) was less than 50% each time. Moreover, the inhibition (on D(2) dopamine receptor; in test [6]; on Histamine H4 receptor; in test [7]; at Histamine H3 receptor; on Histamine H2 receptor) was less than 50% throughout. For the same molecule, the inhibition in test [8], in test [9] and in test [10] was less than 50% in each case. The Ratio Ki with PC-12 was greater than 15.8.
On to `COc1ccc(CN(C)[C@H]2C3C4CC5C3C(=O)C3C5C4C32)cc1OC` (stereo partly drawn), for which the inhibition (in [1]; in the test filed under Rattus norvegicus; in test [2]; in test [3]; in test [4]; in test [5]) was less than 50% throughout. The inhibition (against D(2) dopamine receptor; in [6]; on Histamine H4 receptor; in test [7]; against Histamine H3 receptor; on Histamine H2 receptor) was less than 50% in each case. The inhibition in [8], in test [9] and in [10] was less than 50% each time. Besides, in the test with PC-12, the Ratio Ki stood at 2.2.
